Reference: patent publication US7262301B1, “Zinc-chelating ratiometric fluorescent probes and related methods” (Northwestern University, priority 2003, dated 2007)
Converted amounts (≈) assume the structure as drawn. Read-outs that look alike come from different tables or passages of the source. Blank lines part the entries; values can stand above or below the molecule they belong to.

Assays:
[1] = 10 μM ligand, 1 μM Zn(II), pH 7.20, 0.1 M ionic strength, 25° C.; prior art ligands, literature data; cited from earlier work
[2] = system: mouse fibroblast LTK cell line; experiment: Two-photon emission ratio imaging of fixed fibroblast cells; type: cell-based
Description: FIG. 5. Emission ratio images of fibroblast (LTK) cells treated with Zinbo-5. (A) Brightfield transmission image; (B) ratio image of the intensities at 445 nm and 402 nm; (C) ratio image following a 30 minute treatment with 10 μM zinc sulfate and 20 μM pyrithione at pH 7.4, 25° C., followed by wash with Zinbo-5 stock; (D) ratio image of the same field after a 15 minute treatment with 1 mM TPEN.
The Zinbo-5 probe was tested in the mouse fibroblast LTK cell line. Cells were fixed, treated with a saturated solution of Zinbo-5 and then imaged with two-photon excitation (TPE) laser scanning microscopy using on Zeiss 510 LSM (upright configuration). The excitation beam produced by the femtosecond pulsed Ti:sapphire laser (Tsunami, Spectra-Physics; 8 W Millennia pump) was tuned to 710 nm, (pumping power 6.5 W with 0.5 W entering the Zeiss AOM) was passed through an LSM 510 microscope with an HFT 650 dichroic (Zeiss) and focused onto coverslip adherent fibroblasts using a 63x oil-immersion objective (Zeiss). The NLO META scan head (Zeiss) allowed data collection in 10.7 nm windows centered at 445 nm and 402 nm.
Cells were imaged in the presence of Zinbo-5 to provide the contrast of unbound dye outside of the cells (FIG. 5). After imaging, the same field of cells was treated with 10 μM zinc sulfate and 20 μM pyrithione, a zinc-selective ionophore, resulting in an anticipated increase in the intracellular ratio of emissions from 445 nm and 402 nm (FIG. 5, d-f). Finally, the intracellular ratio was made equal to that of the surrounding unbound dye by treating the same field of view with TPEN (FIG. 5, g-i).
LTK cells were grown as previously published (Nasir, M. S., et al., JBIC (1999) 4:775-783). Cells grown on coverslips were fixed with 4% formaldehyde on ice for 20 minutes and washed with cold PBS before staining. […] Coverslips were attached to slides using Secure-Seal spacers (Molecular Probes) with the saturated staining solution in the spacer well. […]

[3] = Maximal water solubility (saturated staining solution); type: physicochemical; details: PBS (saturated staining solution), PBS with DMSO stock, on ice
[4] = Binding constant determination: fluorescence intensity ratio (or UV absorbance) in Zn2+/EGTA buffered solutions
Description: FIG. 2. (A) Emission spectra of Zinbo-5 with the excitation at 356 nm in Zn^2+/EGTA buffered system (50 mM HEPES, pH 7.20, 0.1 M KNO3; 10 mM EGTA, 1-9 mM zinc sulfate) at 0, 0.14, 0.29, 0.66, 1.1, 1.8, 2.6, 4.0, 6.1, and 11 nM free Zn^2+, respectively. (B) Plots of the fluorescence intensity ratio between 395 nm and 443 nm (I443/I395) with a best curve for a dissociation constant of 2.1±0.1×10^−9.
FIG. 3. UV determination of dissociation constant, Kd: (A) Absorption ratio between at 340 nm and at 374 nm (Abs374/Abs340) in Zn^2+-buffered solution (50 mM HEPES, pH 7.20, 0.1 M KNO3; […], 1-9 mM zinc sulfate).
A series of HEPES (2-[4-(2-hydoroxyethyl)-1-piperazinyl]ethanesulfonic acid) buffer solutions (50 mM, pH 7.20, 0.1 M KNO3) containing various amounts of ZnSO4 (0˜9.5 mM) and 10 mM of EGTA (ethylenebis(oxyethylenenitrilo) tetraacetic acid) were prepared. The concentration of free Zn^2+ was calculated with [EGTA]total, [Zn^2+]total, and K′Zn-EGTA, the apparent binding constant at a given pH and ionic strength. […]
The ratio between 395 nm and 443 nm intensities in the emission spectrum of each solution was measured with the excitation wavelength at 356 nm and was fitted to the following equation (Eq. 2). […]

[5] = Calculated pZn values (-log[Zn]free) for a ligand/zinc solution; type: binding
From the text: […] […] The Zn^2+ affinity of Zinbo-5 is much higher than that of di(2-picolyl)amine (DPA), indicating—without limitation—that the phenolate oxygen and benoxazole nitrogen are likely chelating the metal as the third and fourth ligands.

[6] = Metal ion selectivity of fluorescence (ratio I443/I395) in biological buffers
Description: FIG. 4. Metal ion selectivity of Zinbo-5. Bars are a presentation of the fluorescence ratio I443/I395. Heavy metals (20 μM) and Na^+, K^+, Ca^2+, Mg^2+ (5 mM) were added to 1.5 μM Zinbo-5 in the presence of 10 μM EDTA.

[7] = heavy metals 20 μM, 1.5 μM probe, 10 μM EDTA

Molecule: O=C(O)CN(CCN(CC(=O)O)CC(=O)O)CC(=O)O [EDTA]
- Calculated pZn (-log[Zn]free) [1]: 14.3

Molecule: O=C(O)CN(CCOCCOCCN(CC(=O)O)CC(=O)O)CC(=O)O [EGTA, ethylenebis(oxyethylenenitrilo) tetraacetic acid]
- Calculated pZn (-log[Zn]free) [1]: 9.5

Molecule: O=C(O)CN(CC(=O)O)CC(=O)O [NTA]
- Calculated pZn (-log[Zn]free) [1]: 9.0

Molecule: c1ccc(CN(CCN(Cc2ccccn2)Cc2ccccn2)Cc2ccccn2)nc1 [TPEN, N,N,N′,N′-tetrakis (2-pyridylmethyl) ethylenediamine, reference compound]
- decrease of the intracellular emission ratio ([2]; LTK cells stained with Zinbo-5, zinc loaded, then excess TPEN (1 mM, 15 minute)): 30%
- Calculated pZn (-log[Zn]free) [1]: 16.0

- cell permeability [2]: cell permeable
- solubility [3]: 1.5 µM (≈ 0.587 µg/mL)
- Zn^2+ affinity compared with di(2-picolyl)amine (DPA) [4]: much higher
- Kd ([4]; pH 7.20, fluorescence intensity ratio between 395 nm and 443 nm against log[Zn2+]free, read-out: apparent dissociation constant (Kd) for Zn^2+): 2.2 ± 0.1 nM
Molecule: COc1cc(O)c(-c2nc3c(CNCc4ccccn4)cccc3o2)cc1OC [Zinbo-5, 2-(4,5-dimethoxy-2-hydroxyphenyl)-4-(2-pyridlmethyl)aminomethylbenzoxazole]
- average intracellular increase in the emission ratio (445 nm/402 nm) ([2]; LTK cells after 10 μM zinc sulfate and 20 μM pyrithione): ca. 15%
- Calculated pZn (-log[Zn]free) ([5]; 10 μM ligand, 1 μM Zn(II), pH 7.20, 0.1 M ionic strength, 25° C., the patent's own probe): 9.3
- pZn value (-log[Zn^2+]) ([5]; aqueous solution containing 10 µM ligand and 1 µM zinc ion at pH 7.20 and 0.1 M ionic strength): 9.3
- fluorescence response to Mn^2+, Co^2+, Ni^2+, Fe^+ and Cu^2+ [6, 7]: quenched the fluorescence
- fluorescence response to Zn^2+ and Cd^2+ [6, 7]: induced an emission shift
- fluorescence response to Na^+, K^+, Ca^2+ and Mg^2+ ([6]; metal concentrations as high as 5 mM): no fluorescent response

Molecule: O=C1OC2(c3ccccc31)c1cc(Cl)c(O)c(CN(Cc3ccccn3)Cc3ccccn3)c1Oc1c2cc(Cl)c(O)c1CN(Cc1ccccn1)Cc1ccccn1 [Zinpyr-1]
- Calculated pZn (-log[Zn]free) [1]: 10.1

Molecule: Cc1ccc(S(=O)(=O)Nc2cc(OCC(=O)O)cc3ccc(C)nc23)cc1 [Zinquin acid]
- Calculated pZn (-log[Zn]free) [1]: 9.3

Molecule: O=C(O)c1cc(NCCN(Cc2ccccn2)Cc2ccccn2)ccc1-c1c2ccc(=O)cc-2oc2cc(O)ccc12 [ZnAF-1]
- Calculated pZn (-log[Zn]free) [1]: 10.1

Molecule: carbonic anhydrase
- Calculated pZn (-log[Zn]free) [1]: 12.4
